{"source": "patent US20250049803A1", "about": "“COMBINATION OF A TASK1/3 CHANNEL BLOCKER WITH A NOREPINEPHRINE REUPTAKE INHIBITOR FOR THE TREATMENT OF SLEEP APNEA” (priority 2021, published 2025)", "key": {"[1]": {"test_system": "upper airway collapsibility", "assay": "pig model of obstructive sleep apnea (OSA): collapse of the upper respiratory tract under negative pressure", "assay_type": "in vivo, German Landrace pigs", "design": "efficacy of the dose on upper airway collapsibility: dose or concentration left out as unconfirmed", "excerpt": "The therapeutic potential of the combination of a TASK1/3 channel blocker with a norepinephrine reuptake inhibitor according to the present invention in sleep apnea can be assessed preclinically in a pig model of obstructive sleep apnea (OSA).\nGerman Landrace pigs are used for the model. The pigs are anaesthetized and tracheotomized. Two tracheal cannulas are inserted into the trachea, one into the rostral part and the other into the caudal part of the trachea. Using a connection piece, the rostral cannula is connected to a tube to the negative pressure device and to the distal tracheal cannula. The distal tracheal cannula is additionally connected to a tube with an open end to atmosphere via a connection piece that served for free tracheal breathing, circumventing the upper airway. By appropriate opening and clamping of those tubes breathing can be switched from nasal breathing to breathing through the caudal tracheal cannula, circumventing the upper airway, and the (isolated) upper airway can be connected to the negative pressure device, causing airflow in the inspiratory direction.\nAt certain points in time, the collapsibility of the upper respiratory tract is tested by having the pig breathe via the caudal cannula and applying negative pressures of −50, −100 and −150 cm water head (cm H2O) to the upper respiratory tract. This causes the upper respiratory tract to collapse, which manifests itself in an interruption of the airflow and a pressure drop in the tube system. This test is conducted prior to the administration of the test substance and at certain intervals after the administration of the test substance. An appropriately effective test substance can prevent this collapse of the respiratory tract in the inspiratory phase."}, "[2]": {"assay": "plasma concentrations of atomoxetine in the OSA pig model", "assay_type": "in vivo, pigs", "conditions": "atomoxetine dose used in the combination (i.v. bolus 20 μg/kg + infusion 12.5 μg/kg/h), FIG. 3"}, "[3]": {"conditions": "intranasal 0.3 μg at 0 min, alone, time 0 min (time of administration)"}, "[4]": {"conditions": "intranasal 0.3 μg at 0 min, alone, time 10 min"}, "[5]": {"conditions": "intranasal 0.3 μg at 0 min, alone, time 30 min"}, "[6]": {"conditions": "intranasal 0.3 μg at 0 min, alone, time 60 min"}, "[7]": {"conditions": "intranasal 0.3 μg at 0 min, alone, time 90 min"}, "[8]": {"conditions": "atomoxetine i.v. bolus 20 μg/kg + infusion 12.5 μg/kg/h for four hours from 0 min, time 0 min (time of administration)"}, "[9]": {"conditions": "atomoxetine i.v. bolus 20 μg/kg + infusion 12.5 μg/kg/h for four hours from 0 min, time 10 min"}, "[10]": {"conditions": "atomoxetine i.v. bolus 20 μg/kg + infusion 12.5 μg/kg/h for four hours from 0 min, time 30 min"}, "[11]": {"conditions": "atomoxetine i.v. bolus 20 μg/kg + infusion 12.5 μg/kg/h for four hours from 0 min, time 60 min"}, "[12]": {"conditions": "atomoxetine i.v. bolus 20 μg/kg + infusion 12.5 μg/kg/h for four hours from 0 min, time 90 min (time of nasal application of TASK1/3 channel blocker)"}}}
{"smiles": "COc1ccc(Cl)c(C(=O)N2C3CCC2CN(Cc2c(-c4ccc(C(C)C)cc4)nc4ncccn24)C3)n1", "note": "[(3-Chloro-6-methoxypyridin-2-yl)(3-{[2-(4-isopropylphenyl)imidazo[1,2-a]pyrimidin-3-yl]methyl}-3,8-diazabicyclo[3.2.1]oct-8-yl)methanone]", "values": [{"measurement": "efficacy of the dose on upper airway collapsibility", "setting": "[1]; TASK1/TASK3 channel blocker alone", "value": "non effective dose"}, {"measurement": "Percent pigs without collaps −50 cm H2O, %", "setting": "[1]; [3]", "value": 0, "unit": "%"}, {"measurement": "Percent pigs without collaps −50 cm H2O, %", "setting": "[1]; [4]", "value": 33, "unit": "%"}, {"measurement": "Percent pigs without collaps −50 cm H2O, %", "setting": "[1]; [5]", "value": 0, "unit": "%"}, {"measurement": "Percent pigs without collaps −50 cm H2O, %", "setting": "[1]; [6]", "value": 0, "unit": "%"}, {"measurement": "Percent pigs without collaps −50 cm H2O, %", "setting": "[1]; [7]", "value": 0, "unit": "%"}, {"measurement": "Percent pigs without collaps −100 cm H2O, %", "setting": "[1]; [3]", "value": 0, "unit": "%"}, {"measurement": "Percent pigs without collaps −100 cm H2O, %", "setting": "[1]; [4]", "value": 33, "unit": "%"}, {"measurement": "Percent pigs without collaps −100 cm H2O, %", "setting": "[1]; [5]", "value": 0, "unit": "%"}, {"measurement": "Percent pigs without collaps −100 cm H2O, %", "setting": "[1]; [6]", "value": 0, "unit": "%"}, {"measurement": "Percent pigs without collaps −100 cm H2O, %", "setting": "[1]; [7]", "value": 0, "unit": "%"}, {"measurement": "Percent pigs without collaps −150 cm H2O, %", "setting": "[1]; [3]", "value": 0, "unit": "%"}, {"measurement": "Percent pigs without collaps −150 cm H2O, %", "setting": "[1]; [4]", "value": 0, "unit": "%"}, {"measurement": "Percent pigs without collaps −150 cm H2O, %", "setting": "[1]; [5]", "value": 0, "unit": "%"}, {"measurement": "Percent pigs without collaps −150 cm H2O, %", "setting": "[1]; [6]", "value": 0, "unit": "%"}, {"measurement": "Percent pigs without collaps −150 cm H2O, %", "setting": "[1]; [7]", "value": 0, "unit": "%"}]}
{"smiles": "CNCC[C@@H](Oc1ccccc1C)c1ccccc1", "note": "[atomoxetine, Atomoxetine]", "values": [{"measurement": "plasma concentrations", "setting": "[2]", "value": "about 100 nM"}, {"measurement": "inhibition of upper airway collapsibility", "setting": "[1]; atomoxetine alone, i.v. bolus 20 μg/kg + infusion 12.5 μg/kg/h, 30 min after bolus injection and start of infusion", "value": "inhibited only at a negative pressure of −50 and −100 cm head"}, {"measurement": "inhibition of upper airway collapsibility", "setting": "[1]; atomoxetine alone, i.v. bolus 20 μg/kg + infusion 12.5 μg/kg/h, 60 min after administration", "value": "inhibited only at a negative pressure of −50 cm head"}, {"measurement": "upper airway collapsibility", "setting": "[1]; atomoxetine alone, i.v. bolus 20 μg/kg + infusion 12.5 μg/kg/h, 90 min after bolus injection and start of infusion", "value": "induced at all negative pressures"}, {"measurement": "time points at which upper airway collapsibility was inhibited at all three negative pressures of −50, −100 and −150 cm head (cm H2O) in all pigs", "setting": "[1]; atomoxetine alone, i.v. bolus 20 μg/kg followed by infusion 12.5 μg/kg/h for four hours", "value": "at no time point"}, {"measurement": "Percent pigs without collaps −50 cm H2O, %", "setting": "[1]; [8]", "value": 0, "unit": "%"}, {"measurement": "Percent pigs without collaps −50 cm H2O, %", "setting": "[1]; [9]", "value": 67, "unit": "%"}, {"measurement": "Percent pigs without collaps −50 cm H2O, %", "setting": "[1]; [10]", "value": 100, "unit": "%"}, {"measurement": "Percent pigs without collaps −50 cm H2O, %", "setting": "[1]; [11]", "value": 100, "unit": "%"}, {"measurement": "Percent pigs without collaps −50 cm H2O, %", "setting": "[1]; [12]", "value": 0, "unit": "%"}, {"measurement": "Percent pigs without collaps −100 cm H2O, %", "setting": "[1]; [8]", "value": 0, "unit": "%"}, {"measurement": "Percent pigs without collaps −100 cm H2O, %", "setting": "[1]; [9]", "value": 0, "unit": "%"}, {"measurement": "Percent pigs without collaps −100 cm H2O, %", "setting": "[1]; [10]", "value": 100, "unit": "%"}, {"measurement": "Percent pigs without collaps −100 cm H2O, %", "setting": "[1]; [11]", "value": 0, "unit": "%"}, {"measurement": "Percent pigs without collaps −100 cm H2O, %", "setting": "[1]; [12]", "value": 0, "unit": "%"}, {"measurement": "Percent pigs without collaps −150 cm H2O, %", "setting": "[1]; [8]", "value": 0, "unit": "%"}, {"measurement": "Percent pigs without collaps −150 cm H2O, %", "setting": "[1]; [9]", "value": 0, "unit": "%"}, {"measurement": "Percent pigs without collaps −150 cm H2O, %", "setting": "[1]; [10]", "value": 0, "unit": "%"}, {"measurement": "Percent pigs without collaps −150 cm H2O, %", "setting": "[1]; [11]", "value": 0, "unit": "%"}, {"measurement": "Percent pigs without collaps −150 cm H2O, %", "setting": "[1]; [12]", "value": 0, "unit": "%"}]}
